Data reported in US7737136B2 (N.V. Organon, priority 2002, dated 2010).

Tests used:
[1] = target: T1, human progesterone receptor-B (Homo sapiens, UniProt P06401); assay: Progesterone receptor-B transactivation assay, antiprogestagenic activity (inhibition of luciferase transactivation induced by Org 2058); format: cell-based; conditions: in the presence of 1 nM (16α)-16-ethyl-21-hydroxy-19-norpregn-4-ene-3,20-dione (Org 2058); read-out: Anti-progestagenic activity EC50
T1 construct: expressed in transfected cells; host or cells: Chinese hamster ovary (CHO) cells, line CHO-PRB-pMMTV-LUC 1E2-A2
T1 sequence (P06401 1-933): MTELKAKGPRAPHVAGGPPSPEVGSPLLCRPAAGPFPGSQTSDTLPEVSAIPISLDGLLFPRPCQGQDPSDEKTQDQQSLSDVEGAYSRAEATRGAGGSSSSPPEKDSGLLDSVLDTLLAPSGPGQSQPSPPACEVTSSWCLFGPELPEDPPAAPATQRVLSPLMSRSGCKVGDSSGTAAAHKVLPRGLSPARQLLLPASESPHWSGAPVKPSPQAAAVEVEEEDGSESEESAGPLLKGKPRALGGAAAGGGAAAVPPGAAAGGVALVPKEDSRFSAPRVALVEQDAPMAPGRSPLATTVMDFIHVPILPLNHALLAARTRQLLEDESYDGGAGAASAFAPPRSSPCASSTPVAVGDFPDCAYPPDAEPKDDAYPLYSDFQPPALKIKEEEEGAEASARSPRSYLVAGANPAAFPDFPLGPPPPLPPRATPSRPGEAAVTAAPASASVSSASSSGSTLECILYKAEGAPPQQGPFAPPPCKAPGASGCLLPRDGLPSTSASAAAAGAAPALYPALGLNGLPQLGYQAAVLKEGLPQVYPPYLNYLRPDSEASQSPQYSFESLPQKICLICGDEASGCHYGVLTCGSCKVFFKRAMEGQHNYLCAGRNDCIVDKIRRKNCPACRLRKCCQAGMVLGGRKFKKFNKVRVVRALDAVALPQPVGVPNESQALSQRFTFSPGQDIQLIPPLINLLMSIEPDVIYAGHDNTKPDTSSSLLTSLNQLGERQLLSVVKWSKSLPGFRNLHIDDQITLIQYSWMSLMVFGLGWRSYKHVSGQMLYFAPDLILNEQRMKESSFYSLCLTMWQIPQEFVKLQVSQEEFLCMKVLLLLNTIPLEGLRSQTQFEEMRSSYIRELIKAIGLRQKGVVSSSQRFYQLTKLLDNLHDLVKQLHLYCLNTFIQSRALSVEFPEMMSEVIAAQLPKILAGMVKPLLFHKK
Procedure: (§1) The (anti-)progestagenic activity of a compound of the invention (EC 50 and intrinsic activity) was determined in an in vitro bioassay of Chinese hamster ovary (CHO) cells stably transfected with the human progesterone receptor-B expression plasmid and with a reporter plasmid in which the MMTV-promoter is linked to the luciferase reporter gene. […] The cells were cultured with charcoal-treated supplemented defined bovine calf serum from Hyclone (Utah, USA) in Dulbecco's Modified Eagles Medium/Nutrient Mixture F-12 (DMEM/HAM F12 in ratio 1:1) from Gibco (Paisley, UK).

[2] = target: T1, human progesterone receptor-B; assay: Progesterone receptor-B transactivation assay, progestagenic (agonist) activity, CHO-PRB-pMMTV-LUC 1E2-A2 cells; format: cell-based; conditions: CHO cells stably transfected with human progesterone receptor-B and MMTV-luciferase reporter; read-out: Progestagenic activity EC50
Procedure: as §1

SMILES | EC50 [1] | EC50 [2]
CC(C)CNC(=S)N[C@H]1CCCN2c3cc(Cl)ccc3Oc3ccccc3[C@H]12 (relative stereo) [Example 32, trans-N-(7-Chloro-2,3,4,14b-tetrahydro-1H-dibenzo[b,f]pyrido[1,2-d][1,4]oxazepin-1-yl)-N′-(2-methylpropyl)thiourea] | 100 to 10000 nM | 
S=C(NC1CCCCC1)N[C@H]1CCCN2c3cc(Cl)ccc3Oc3ccccc3[C@H]12 (relative stereo) [Example 33] | 100 to 10000 nM | 
O=C(N[C@H]1CCCN2c3c(Br)cc(F)cc3Oc3ccccc3[C@H]12)C(F)(F)F (relative stereo) [Example 56, trans-N-(6-Bromo-8-fluoro-2,3,4,14b-tetrahydro-1H-dibenzo[b,f]pyrido[1,2-d][1,4]oxazepin-1-yl)-2,2,2-trifluoroacetamide] |  | 100 to 10000 nM
CC(=O)c1cc(F)cc2c1N1CCC[C@H](NC(=O)C(F)(F)F)[C@H]1c1ccccc1O2 (relative stereo) [Example 57, trans-N-(6-Acetyl-8-fluoro-2,3,4,14b-tetrahydro-1H-dibenzo[b,f]pyrido[1,2-d][1,4]oxazepin-1-yl)-2,2,2-trifluoroacetamide] |  | < 10 nM
N#Cc1cc(F)cc2c1N1CCC[C@H](NC(=O)C(F)(F)F)[C@H]1c1ccccc1O2 (relative stereo) [Example 58, trans-8-Fluoro-2,3,4,14b-tetrahydro-1-[(trifluoroacetyl)amino]-1H-dibenzo[b,f]pyrido-[1,2-d][1,4]oxazepine-6-carbonitrile] |  | < 10 nM
C=Cc1cc(F)cc2c1N1CCC[C@H](NC(=O)C(F)(F)F)[C@H]1c1ccccc1O2 (relative stereo) [Example 59, trans-N-(6-Ethenyl-8-fluoro-2,3,4,14b-tetrahydro-1H-dibenzo[b,f]pyrido[1,2-d][1,4]-oxazepin-1-yl)-2,2,2-trifluoroacetamide] |  | < 10 nM
Cc1cc(F)cc2c1N1CCC[C@H](NC(=O)C(F)(F)F)[C@H]1c1ccccc1O2 (relative stereo) [Example 60, trans-2,2,2-Trifluoro-N-(8-fluoro-2,3,4,14b-tetrahydro-6-methyl-1H-dibenzo[b,f]pyrido-[1,2-d][1,4]oxazepin-1-yl)acetamide] |  | < 10 nM
O=C(N[C@H]1CCCN2c3cc(Br)ccc3Oc3ccccc3[C@H]12)C(F)(F)F (relative stereo) [Example 61, trans-N-(7-Bromo-2,3,4,14b-tetrahydro-1H-dibenzo[b,f]pyrido[1,2-d][1,4]oxazepin-1-yl)-2,2,2-trifluoroacetamide] |  | < 10 nM
CC(=O)c1ccc2c(c1)N1CCC[C@H](NC(=O)C(F)(F)F)[C@H]1c1ccccc1O2 (relative stereo) [Example 62, trans-N-(7-Acetyl-2,3,4,14b-tetrahydro-1H-dibenzo[b,f]pyrido[1,2-d][1,4]oxazepin-1-yl)-2,2,2-trifluoroacetamide] |  | 10 to 100 nM
N#Cc1ccc2c(c1)N1CCC[C@H](NC(=O)C(F)(F)F)[C@H]1c1ccccc1O2 (relative stereo) [Example 63, trans-2,3,4,14b-Tetrahydro-1-[(trifluoroacetyl)amino]-1H-dibenzo[b,f]pyrido[1,2-d][1,4]oxazepine-7-carbonitrile] |  | < 10 nM
C=Cc1ccc2c(c1)N1CCC[C@H](NC(=O)C(F)(F)F)[C@H]1c1ccccc1O2 (relative stereo) [Example 64, trans-N-(7-Ethenyl-2,3,4,14b-tetrahydro-1H-dibenzo[b,f]pyrido[1,2-d][1,4]oxazepin-1-yl)-2,2,2-trifluoroacetamide] |  | 100 to 10000 nM
CCC(=O)Nc1ccc2c(c1)N1CCC[C@H](NC(=O)C(F)(F)F)[C@H]1c1ccccc1O2 (relative stereo) [Example 67, trans-N-[2,3,4,14b-Tetrahydro-7-[(1-oxopropyl)amino]-1H-dibenzo[b,f]pyrido[1,2-d][1,4]oxazepin-1-yl]-2,2,2-trifluoroacetamide] |  | 100 to 10000 nM
O=C(N[C@H]1CCCN2c3cc(Cl)ccc3Oc3cc(Br)ccc3[C@H]12)C(F)(F)F (relative stereo) [Example 68, trans-N-(12-Bromo-7-chloro-2,3,4,14b-tetrahydro-1H-dibenzo[b,f]pyrido[1,2-d][1,4]oxazepin-1-yl)-2,2,2-trifluoroacetamide] |  | 10 to 100 nM
N#Cc1ccc2c(c1)Oc1ccc(Cl)cc1N1CCC[C@H](NC(=O)C(F)(F)F)[C@@H]21 (relative stereo) [Example 69, trans-7-Chloro-2,3,4,14b-tetrahydro-1-[(trifluoroacetyl)amino]-1H-dibenzo[b,f]pyrido[1,2-d][1,4]oxazepine-12-carbonitrile] |  | 10 to 100 nM
Cc1ccc2c(c1)Oc1ccc(Cl)cc1N1CCC[C@H](NC(=O)C(F)(F)F)[C@@H]21 (relative stereo) [Example 70, trans-N-(7-Chloro-2,3,4,14b-tetrahydro12-methyl-1H-dibenzo[b,f]pyrido[1,2-d][1,4]oxazepin-1-yl)-2,2,2-trifluoroacetamide] |  | 10 to 100 nM
O=C(N[C@H]1CCCN2c3c(ccc(Cl)c3Cl)Oc3cc(Br)ccc3[C@H]12)C(F)(F)F (relative stereo) [Example 71, trans-N-(12-Bromo-6,7-dichloro-2,3,4,14b-tetrahydro-1H-dibenzo[b,f]pyrido[1,2-d][1,4]oxazepin-1-yl)-2,2,2-trifluoroacetamide] |  | < 10 nM
O=C(N[C@H]1CCCN2c3cc(Cl)ccc3Oc3c(F)cccc3[C@H]12)C(F)(F)F (relative stereo) [Example 72, trans-N-(7-Chloro-11-fluoro-2,3,4,14b-tetrahydro-1H-dibenzo[b,f]pyrido[1,2-d][1,4]oxazepin-1-yl)-2,2,2-trifluoroacetamide] |  | 10 to 100 nM
O=C(N[C@H]1CCCN2c3cc(Cl)ccc3Oc3cccc(F)c3[C@H]12)C(F)(F)F (relative stereo) [Example 73, trans-N-(7-Chloro-14-fluoro-2,3,4,14b-tetrahydro-1H-dibenzo[b,f]pyrido[1,2-d][1,4]oxazepin-1-yl)-2,2,2-trifluoroacetamide] |  | < 10 nM
O=C(N[C@H]1CCCN2c3cc(Cl)ccc3Oc3cc(F)ccc3[C@H]12)C(F)(F)F (relative stereo) [Example 74, trans-N-(7-Chloro-12-fluoro-2,3,4,14b-tetrahydro-1H-dibenzo[b,f]pyrido[1,2-d][1,4]oxazepin-1-yl)-2,2,2-trifluoroacetamide] |  | 10 to 100 nM
O=C(N[C@H]1CCCN2c3cc(Cl)ccc3Oc3cc(F)c(F)cc3[C@H]12)C(F)(F)F (relative stereo) [Example 75, trans-N-(7-Chloro-12,13-difluoro-2,3,4,14b-tetrahydro-1H-dibenzo[b,f]pyrido[1,2-d][1,4]oxazepin-1-yl)-2,2,2-trifluoroacetamide] |  | < 10 nM
CN1c2ccccc2[C@@H]2[C@@H](NC(=O)C(F)(F)F)CCCN2c2cc(Cl)ccc21 (relative stereo) [Example 76, trans-N-(7-Chloro-1,2,3,4,10,14b-hexahydro-10-methyl-dibenzo[b,f]pyrido[1,2-d][1,4]diazepin-1-yl)-2,2,2-trifluoroacetamide] |  | < 10 nM
O=C(N[C@H]1CCCN2c3cc(Cl)ccc3Nc3ccccc3[C@H]12)C(F)(F)F (relative stereo) [Example 78, trans-N-(7-chloro-1,2,3,4,10,14b-hexahydrodibenzo[b,f]pyrido[1,2-d][1,4]diazepin-1-yl)-2,2,2-trifluoroacetamide] |  | 10 to 100 nM
FCC(=S)NC1CCCN2c3cc(Cl)ccc3Oc3ccccc3C12 [22 (1S,14bR isomer)] | 10 to 100 nM | 
O=C(N[C@H]1CCCN2c3cc(Cl)ccc3Oc3ccccc3[C@H]12)C(F)F [Example 13] |  | 10 to 100 nM
O=C(CCl)NC1CCCN2c3cc(Cl)ccc3Oc3ccccc3C12 (centres unmarked) [Example 14] |  | 100 to 10000 nM
FC(F)(F)C(=S)NC1CCCN2c3cc(Cl)ccc3Cc3ccccc3C12 (centres unmarked) [Example 20] |  | < 10 nM
FCC(=S)N[C@H]1CCCN2c3cc(Cl)ccc3Oc3ccccc3[C@H]12 [Example 22] |  | < 10 nM
CN(C(=S)C(F)(F)F)C1CCCN2c3cc(Cl)ccc3Oc3ccccc3C12 (centres unmarked) [Example 24] |  | 10 to 100 nM
CC(C)(C)NC(=S)NC1CCCN2c3cc(Cl)ccc3Oc3ccccc3C12 (centres unmarked) [Example 35] | 100 to 10000 nM | 
